As a reminder, the EC50 is the midpoint of the concentration-response curve. One may read the IC50 as the midpoint of a concentration-inhibition curve. For orientation: CC50 means the concentration at which the toxic effect on the cells reaches its halfway point.

In ChEMBL document CHEMBL4665822, “Structure-Guided Optimization of Dipeptidyl Inhibitors of Norovirus 3CL Protease” (J Med Chem, 2020) one finds EC50, IC50 and CC50 data, which are given here for 37 compounds.

One data set deals with Norovirus. As to the kind of experiment: Antiviral activity against Norovirus replicon infected in human HG23 cells assessed as reduction in viral RNA level after 48 hrs by qRT-PCR analysis. Format: functional, cell-based. Particulars: HG23, 48 h. On the technique in general: In antiviral work, replicon cells carry a viral genome segment that copies itself.
Data set [1] can be described thus: Inhibition of Norovirus 3CL protease using Edans-DFHLQ/GPDabcyl preincubated for 30 mins followed by substrate addition and measured after 1 hr by FRET assay.
Data set [2] in a line: Cytotoxicity against human HG23 cells assessed as reduction cell viability after 48 hrs by CytoTox 96 nonradioactive assay. Format: cell-based.

Regarding `CC(C)C[C@H](NC(=O)OC1(c2cccc(Cl)c2)CC1)C(=O)N[C@@H](C[C@@H]1CCNC1=O)C(O)S(=O)(=O)O` (some centres not stated), the EC50 in the data set with Norovirus was 550 nM. The same compound registered a half-maximal inhibitory concentration (IC50) in data set [1] of 250 nM. In addition, the cytotoxic concentration (CC50) at 48 h in data set [2] is > 100000 nM.
For `CC(=O)OC([C@H](C[C@@H]1CCNC1=O)NC(=O)[C@H](CC(C)C)NC(=O)OCC(C)(C)c1cccc(Cl)c1)S(=O)(=O)O` (some centres not stated), in that order: 450 nM, 130 nM and > 100000 nM.
Consider `CC(C)(Cc1cccc(Cl)c1)OC(=O)N[C@@H](CC1CCCCC1)C(=O)N[C@H](C=O)C[C@@H]1CCNC1=O`, for which, in the data set with Norovirus, the EC50 was 5400 nM. The compound also came in with an IC50 in data set [1] of 7700 nM. Besides, in data set [2], the cytotoxic concentration (CC50) at 48 h was 15600 nM.
For `CC(C)C[C@H](NC(=O)OCCCc1ccccc1)C(=O)N[C@@H](C[C@@H]1CCNC1=O)C(O)S(=O)(=O)O` (some centres not stated), in that order: 850 nM, 600 nM and > 100000 nM.
The corresponding values for `CC(=O)OC([C@H](C[C@@H]1CCNC1=O)NC(=O)[C@H](CC1CCCCC1)NC(=O)OCC(C)(C)c1cccc(Cl)c1)S(=O)(=O)O` (some centres not stated) are 150 nM, 90 nM and 67000 nM.
On to `CC(C)C[C@H](NC(=O)OCCCc1ccccc1)C(=O)N[C@H](C=O)C[C@@H]1CCNC1=O`, for which the EC50 with Norovirus was determined as 770 nM. This compound also returned an IC50 in data set [1] of 750 nM. Besides, the cytotoxic concentration (CC50) at 48 h in data set [2] was > 100000 nM.
The corresponding values for `CC(C)C[C@H](NC(=O)OCC(C)(C)c1cccc(Cl)c1)C(=O)N[C@H](C=O)C[C@@H]1CCNC1=O` are 170 nM, 270 nM and > 100000 nM.
For the compound `O=C[C@H](C[C@@H]1CCNC1=O)NC(=O)[C@H](CC1CCCCC1)NC(=O)OCCCc1cccc(Cl)c1`, the concentration giving a half-maximal response (EC50) in the data set with Norovirus turned out to be 80 nM. In addition, the 50% cytotoxic concentration (CC50) at 48 h in data set [2] worked out at 30300 nM.
Consider `CC(C)(COC(=O)N[C@@H](CC1CCCCC1)C(=O)N[C@@H](C[C@@H]1CCNC1=O)C(O)S(=O)(=O)O)c1ccccc1` (some centres not stated), for which, in the data set with Norovirus, the EC50 stood at 500 nM. It took 320 nM to reach half-maximal inhibition in data set [1] (IC50). Besides, the CC50 at 48 h in data set [2] was 83900 nM.
For the compound `CCCCCC(=O)OC([C@H](C[C@@H]1CCNC1=O)NC(=O)[C@H](CC1CCCCC1)NC(=O)OCC(C)(C)Cc1cccc(Cl)c1)S(=O)(=O)O` (some centres not stated), the concentration for a half-maximal effect (EC50) in the data set on Norovirus was 80 nM. Further, in data set [2], the CC50 at 48 h is 20700 nM.
As to `CC(C)C[C@H](NC(=O)OCC(C)(C)c1cccc(Cl)c1)C(=O)N[C@@H](C[C@@H]1CCNC1=O)C(O)S(=O)(=O)O` (some centres not stated), in the data set on Norovirus, the EC50 was 190 nM. In addition, in data set [1], the IC50 is 300 nM. The CC50 at 48 h in data set [2] is > 100000 nM.
Regarding `CC(C)C[C@H](NC(=O)OCC(C)(C)c1ccccc1)C(=O)N[C@@H](C[C@@H]1CCNC1=O)C(O)S(=O)(=O)O` (some centres not stated), in the data set on Norovirus, the EC50 came out at 450 nM. Besides, in data set [1], the half-inhibitory concentration (IC50) was determined as 400 nM. Moreover, in data set [2], the cytotoxic concentration (CC50) at 48 h is > 100000 nM.
For `CC(C)C[C@H](NC(=O)OC/C=C/c1cccc(Cl)c1)C(=O)N[C@@H](C[C@@H]1CCNC1=O)C(O)S(=O)(=O)O` (some centres not stated), in that order: 80 nM, 110 nM and > 100000 nM.
For `O=C[C@H](C[C@@H]1CCNC1=O)NC(=O)[C@H](CC1CCCCC1)NC(=O)OC/C=C/c1cccc(Cl)c1`, in that order: 60 nM, 140 nM and 24100 nM.
For `CC(C)(Cc1cccc(Cl)c1)OC(=O)N[C@@H](CC1CCCCC1)C(=O)N[C@@H](C[C@@H]1CCNC1=O)C(O)S(=O)(=O)O` (some centres not stated), in that order: 2900 nM, 6800 nM and 20400 nM.
Take `CC(C)(COC(=O)N[C@@H](CC1CCCCC1)C(=O)N[C@H](C=O)C[C@@H]1CCNC1=O)c1ccccc1`: in the data set with Norovirus, the half-maximal effective concentration (EC50) was 600 nM. In data set [1], it took 450 nM to reach half-maximal inhibition (IC50). Besides, in data set [2], the CC50 at 48 h amounted to 80100 nM.
The corresponding values for `CC(C)C[C@H](NC(=O)OC(C)(C)Cc1cccc(Cl)c1)C(=O)N[C@@H](C[C@@H]1CCNC1=O)C(O)S(=O)(=O)O` (some centres not stated) are 700 nM, 1000 nM and > 100000 nM.
For `O=C(N[C@@H](CC1CCCCC1)C(=O)N[C@@H](C[C@@H]1CCNC1=O)C(O)S(=O)(=O)O)OC1(c2cccc(Cl)c2)CC1` (some centres not stated), in that order: 180 nM, 270 nM and 42300 nM.
For `CCC(=O)OC([C@H](C[C@@H]1CCNC1=O)NC(=O)[C@H](CC1CCCCC1)NC(=O)OCC(C)(C)c1cccc(Cl)c1)S(=O)(=O)O` (some centres not stated), the EC50 in the data set with Norovirus worked out at 220 nM. This compound also gave an IC50 in data set [1] of 70 nM. The 50% cytotoxic concentration (CC50) at 48 h in data set [2] was determined as 70500 nM.
The corresponding values for `CC(C)(COC(=O)N[C@@H](CC1CCCCC1)C(=O)N[C@@H](C[C@@H]1CCNC1=O)C(O)S(=O)(=O)O)c1cccc(Cl)c1` (some centres not stated) are 80 nM, 200 nM and 14300 nM.
The corresponding values for `CC(C)C[C@H](NC(=O)OC(C)(C)c1cccc(Cl)c1)C(=O)N[C@@H](C[C@@H]1CCNC1=O)C(O)S(=O)(=O)O` (some centres not stated) are 1800 nM, 3300 nM and > 100000 nM.
For the compound `O=C(N[C@@H](CC1CCCCC1)C(=O)N[C@@H](C[C@@H]1CCNC1=O)C(O)S(=O)(=O)O)OCCCc1cccc(Cl)c1` (some centres not stated), the EC50 in the data set with Norovirus was determined as 60 nM.
As for `CC(C)(COC(=O)N[C@@H](CC1CCCCC1)C(=O)N[C@@H](C[C@@H]1CCNC1=O)C(O)S(=O)(=O)O)Cc1cccc(Cl)c1` (some centres not stated), in the data set on Norovirus, the EC50 is 70 nM. In data set [1], this compound came in with an IC50 of 140 nM. Further, the CC50 at 48 h in data set [2] came out at 16200 nM.
For `CC(C)(OC(=O)N[C@@H](CC1CCCCC1)C(=O)N[C@H](C=O)C[C@@H]1CCNC1=O)c1cccc(Cl)c1`, in that order: 3700 nM, 2900 nM and > 100000 nM.
For `CC(C)C[C@H](NC(=O)OCCCc1cccc(Cl)c1)C(=O)N[C@@H](C[C@@H]1CCNC1=O)C(O)S(=O)(=O)O` (some centres not stated), in the data set on Norovirus, the EC50 was found to be 90 nM. The same compound came in with a half-maximal inhibitory concentration (IC50) in data set [1] of 190 nM. Moreover, the half-maximal cytotoxic concentration (CC50) at 48 h in data set [2] was > 100000 nM.
For `CC(C)C[C@H](NC(=O)OC/C=C/c1cccc(Cl)c1)C(=O)N[C@H](C=O)C[C@@H]1CCNC1=O`, in that order: 80 nM, 150 nM and > 100000 nM.
The corresponding values for `CC(C)C[C@H](NC(=O)OC(C)(C)c1cccc(Cl)c1)C(=O)N[C@H](C=O)C[C@@H]1CCNC1=O` are 3500 nM, 3800 nM and > 100000 nM.
For `CCC(=O)OC([C@H](C[C@@H]1CCNC1=O)NC(=O)[C@H](CC1CCCCC1)NC(=O)OCC(C)(C)Cc1cccc(Cl)c1)S(=O)(=O)O` (some centres not stated), in that order: 100 nM, 340 nM and 18400 nM.
Turning to `CC(C)(OC(=O)N[C@@H](CC1CCCCC1)C(=O)N[C@@H](C[C@@H]1CCNC1=O)C(O)S(=O)(=O)O)c1cccc(Cl)c1` (some centres not stated), the concentration for a half-maximal effect (EC50) with Norovirus amounted to 2900 nM. In data set [1], this compound displayed a half-maximal inhibitory concentration (IC50) of 2700 nM. Further, the 50% cytotoxic concentration (CC50) at 48 h in data set [2] is > 100000 nM.
As for `CC(C)C[C@H](NC(=O)OC1(c2cccc(Cl)c2)CC1)C(=O)N[C@H](C=O)C[C@@H]1CCNC1=O`, in the data set on Norovirus, the EC50 amounted to 650 nM. The same compound came in with a half-inhibitory concentration (IC50) in data set [1] of 280 nM. Also, in data set [2], the CC50 at 48 h was > 100000 nM.
For `O=C[C@H](C[C@@H]1CCNC1=O)NC(=O)[C@H](CC1CCCCC1)NC(=O)OC1(c2cccc(Cl)c2)CC1`, in that order: 250 nM, 280 nM and 36500 nM.
As for `CC(C)(COC(=O)N[C@@H](CC1CCCCC1)C(=O)N[C@H](C=O)C[C@@H]1CCNC1=O)Cc1cccc(Cl)c1`, the 50% effective concentration (EC50) in the data set with Norovirus came out at 60 nM. The concentration for half-maximal inhibition (IC50) in data set [1] came to 110 nM. Moreover, the half-maximal cytotoxic concentration (CC50) at 48 h in data set [2] was determined as 14100 nM.
For `O=C(N[C@@H](CC1CCCCC1)C(=O)N[C@@H](C[C@@H]1CCNC1=O)C(O)S(=O)(=O)O)OC/C=C/c1cccc(Cl)c1` (some centres not stated), in that order: 70 nM, 160 nM and 28300 nM.
In the case of `CC(C)C[C@H](NC(=O)OC(C)(C)Cc1cccc(Cl)c1)C(=O)N[C@H](C=O)C[C@@H]1CCNC1=O`, in the data set with Norovirus, the EC50 was determined as 900 nM. Further, half-maximal inhibition in data set [1] (IC50) was put at 1200 nM. Also, the CC50 at 48 h in data set [2] is > 100000 nM.
On to `CC(C)C[C@H](NC(=O)OCCCc1cccc(Cl)c1)C(=O)N[C@H](C=O)C[C@@H]1CCNC1=O`, for which the 50% effective concentration (EC50) in the data set with Norovirus worked out at 160 nM. In data set [1], the midpoint of inhibition, the IC50, lay at 260 nM. Besides, the cytotoxic concentration (CC50) at 48 h in data set [2] is > 100000 nM.
The corresponding values for `CC(C)C[C@H](NC(=O)OCC(C)(C)c1ccccc1)C(=O)N[C@H](C=O)C[C@@H]1CCNC1=O` are 650 nM, 450 nM and > 100000 nM.
The corresponding values for `CC(C)(COC(=O)N[C@@H](CC1CCCCC1)C(=O)N[C@H](C=O)C[C@@H]1CCNC1=O)c1cccc(Cl)c1` are 70 nM, 230 nM and 13300 nM.
